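Test compounds were applied to cells in 96-well plates for 48 hours at 5 doses. Definition used: TGI = concentration required for complete inhibition of growth.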
Tests used:
Assay in all cases: NCI-60 cell line screen, 48 h
BT-549 breast = system: BT-549 breast
EKVX NSCLC = system: EKVX NSCLC
HCC-2998 colon = system: HCC-2998 colon
K-562 leukemia = system: K-562 leukemia
NCI-H226 lung = system: NCI-H226 lung
OVCAR-4 ovarian = system: OVCAR-4 ovarian
RXF 393 renal = system: RXF 393 renal
SR leukemia = system: SR leukemia
U251 CNS = system: U251 CNS
UACC-257 melanoma = system: UACC-257 melanoma
ACHN renal = system: ACHN renal
NCI-H460 lung = system: NCI-H460 lung
OVCAR-5 ovarian = system: OVCAR-5 ovarian
SK-MEL-28 melanoma = system: SK-MEL-28 melanoma
LOX IMVI melanoma = system: LOX IMVI melanoma

Row | SMILES | TGI (BT-549 breast) [µM] | TGI (EKVX NSCLC) [µM] | TGI (HCC-2998 colon) [µM] | TGI (K-562 leukemia) [µM] | TGI (NCI-H226 lung) [µM] | TGI (OVCAR-4 ovarian) [µM] | TGI (RXF 393 renal) [µM] | TGI (SR leukemia) [µM] | TGI (U251 CNS) [µM] | TGI (UACC-257 melanoma) [µM] | TGI (ACHN renal) [µM] | TGI (NCI-H460 lung) [µM] | TGI (OVCAR-5 ovarian) [µM] | TGI (SK-MEL-28 melanoma) [µM] | TGI (LOX IMVI melanoma) [µM]
1 | CCC(CC)C(=O)OC[n+]1ccc(-c2c(COC(=O)NC(C)C)c(COC(=O)NC(C)C)c3n2CCC3)cc1 | > 100 | > 100 | > 100 | > 100 | > 100 | > 100 | > 100 | > 100 | > 100 | > 100 | – | – | – | – | –
2 | CCOC(=O)[C@@H]1C[C@H]1c1ccc(O)c(O)c1 | > 100 | > 100 | 91.9 | 51.3 | > 100 | – | 87.4 | > 100 | > 100 | > 100 | > 100 | > 100 | > 100 | > 100 | –
3 | C[C@]12CCC3c4ccc(O)cc4CC[C@H]3C1CC(=O)N(N)C2=O (stereo not given in full) | > 100 | > 100 | > 100 | > 100 | > 100 | > 100 | > 100 | > 100 | > 100 | > 100 | > 100 | > 100 | > 100 | > 100 | –
4 | COC(=O)c1ccc(Oc2nc3ccccc3nc2-c2cccs2)cc1 | > 100 | > 100 | – | – | – | > 100 | > 100 | > 100 | – | > 100 | > 100 | > 100 | > 100 | > 100 | > 100
5 | O[C@@]1(c2cccs2)c2cccc(Cl)c2[C@](O)(c2cccs2)c2cccc(Cl)c21 | 48.1 | 44.9 | 32.7 | > 100 | 57.1 | 40.9 | 38.2 | – | 33.2 | 30.3 | 39.5 | 34.2 | 37.6 | 37.8 | 33.2
6 | Nc1nc(Cl)c(N)c(NCC2(CO)CC(Cc3ccccc3)C2)n1 (stereo not given) | > 100 | > 100 | > 100 | > 94.3 | > 100 | > 100 | > 100 | – | > 56.7 | > 86.3 | > 100 | > 100 | > 100 | > 100 | > 100
7 | CC(NC(=O)C(OC(=O)C(C)NC(=O)OC(C)(C)C)C(C)C)C(=O)OC(C(=O)O)C(C)C (stereo not given) | > 100 | > 100 | > 100 | > 100 | > 100 | – | > 100 | > 100 | > 100 | > 100 | > 100 | > 100 | > 100 | > 100 | –
8 | COc1ccc(/C(CCl)=C(\Nc2ccccc2)c2ccc(OC)c(OC)c2)cc1OC | > 100 | > 100 | > 100 | > 100 | > 100 | > 100 | > 100 | – | > 100 | > 100 | > 100 | > 100 | > 100 | > 100 | > 100
9 | CC1CC(C)[C@H](O)C([C@H](O)CC2CC(=O)N(C)C(=O)C2)C1 (stereo not given in full) | > 100 | > 100 | > 100 | > 100 | > 100 | > 100 | > 100 | – | > 100 | > 100 | > 100 | > 100 | > 100 | > 100 | > 100
10 | N#Cc1nc(CSCc2ccccc2)oc1N | > 100 | – | > 100 | – | > 100 | > 100 | > 100 | > 100 | > 100 | > 100 | > 100 | > 100 | > 100 | > 100 | –
11 | CCC(C)C(C(=O)N/N=C1/SCC(=O)N1C)C(=O)N/N=C1/SCC(=O)N1C (stereo not given) | > 100 | > 100 | > 100 | > 100 | > 100 | > 100 | > 100 | – | > 100 | > 100 | > 100 | > 100 | > 100 | > 100 | > 100
12 | NCC[Se][Se]CCN | 27.8 | 18.1 | 24.9 | 64 | 29.1 | 32.1 | 32.5 | > 100 | 24.1 | 20.4 | 22.8 | 21.9 | 17.6 | 29.7 | –
13 | CCC(CS(=O)(=O)O)[N+](=O)[O-] (stereo not given) | > 100 | > 100 | > 100 | > 100 | > 100 | > 100 | > 100 | – | > 100 | > 100 | > 100 | > 100 | > 100 | > 100 | > 100
14 | CCN(CC)c1ccc2c(c1)OC(=O)C(c1nnc(-c3ccc([N+](=O)[O-])cc3)o1)C2 (stereo not given) | > 100 | > 100 | > 100 | > 100 | > 100 | > 100 | > 100 | – | > 100 | > 100 | > 100 | > 100 | > 100 | > 100 | > 100
